Experimental data as given in patent US7601713B2, “Kinase inhibitors and their uses” (Rigel Pharmaceuticals, Inc., priority 2005, dated 2009).

target: T1, Axl kinase (Homo sapiens, UniProt P30530); experiment: Phospho-Akt in-cell Western assay (Axl antibody cross-linking, Hela cells); assay type: cell-based; settings: phospho-Akt readout, read-out: IC50, inhibition of Axl kinase
T1 construct: endogenous in cells; host or cells: HeLa cells
T1 sequence (P30530 26-894): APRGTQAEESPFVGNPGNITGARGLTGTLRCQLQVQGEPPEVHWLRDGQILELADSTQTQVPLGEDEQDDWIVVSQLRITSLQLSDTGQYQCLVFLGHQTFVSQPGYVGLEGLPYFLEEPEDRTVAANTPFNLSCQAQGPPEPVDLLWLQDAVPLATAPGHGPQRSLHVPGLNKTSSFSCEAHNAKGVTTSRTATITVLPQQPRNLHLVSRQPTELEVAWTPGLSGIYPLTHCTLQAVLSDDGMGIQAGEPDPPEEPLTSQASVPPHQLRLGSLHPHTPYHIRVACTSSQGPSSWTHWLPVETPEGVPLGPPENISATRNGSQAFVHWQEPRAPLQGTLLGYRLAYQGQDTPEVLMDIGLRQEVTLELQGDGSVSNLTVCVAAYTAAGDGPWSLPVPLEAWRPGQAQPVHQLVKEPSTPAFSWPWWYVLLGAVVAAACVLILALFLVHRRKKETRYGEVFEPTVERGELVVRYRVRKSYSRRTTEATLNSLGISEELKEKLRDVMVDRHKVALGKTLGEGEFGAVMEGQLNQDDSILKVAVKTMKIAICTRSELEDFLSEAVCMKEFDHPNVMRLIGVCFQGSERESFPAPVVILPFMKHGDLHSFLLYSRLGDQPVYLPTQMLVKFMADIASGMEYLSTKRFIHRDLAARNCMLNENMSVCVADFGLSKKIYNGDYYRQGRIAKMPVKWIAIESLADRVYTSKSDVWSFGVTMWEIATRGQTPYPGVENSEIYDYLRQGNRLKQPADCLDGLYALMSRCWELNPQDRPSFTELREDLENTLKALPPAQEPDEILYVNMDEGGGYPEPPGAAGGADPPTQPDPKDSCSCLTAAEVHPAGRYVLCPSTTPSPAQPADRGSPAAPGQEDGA
Protocol: The compounds of the invention were tested in the following assay for their ability to inhibit Axl activity.
Phospho-Akt in-Cell Western Assay
Starvation medium: For Axl stimulation: 0.5% FCS (fetal calf serum) in DMEM, plus Axl/Fc (extracellular domain of AXL fused to immunoglobulin Fc region) (R&D, 154-AL) 500 ng/mL.
Axl antibody cross-linking: • 1st: Mouse anti-Axl (R&D, MAB 154). • 2nd: Biotin-SP-conjugated AffiniPure goat anti-mouse IgG (H+L) (Jackson ImmunoResearch #115-065-003).
Primary antibody: Rabbit anti-human Phospho-Akt antibody (Cell Signaling 9271): 1×250 diluted in blocking buffer.
Secondary antibody: HRP (horse radish peroxidase)-conjugated Goat anti-Rabbit secondary, stock solution: Jackson lmmunoResearch (Goat anti-Rabbit HRP, #111-035-144) 1:1 diluted in glycerol, store at −20° C. The working solution: 1×2000 dilution of stock in blocking buffer.
A 96 well TC (tissue culture treated) plate was coated with 10 μg/mL poly-L-Lysine at 37° C. for 30 min, washed twice with PBS, and air-dried for 5 minutes before cells were added. Hela cells were seeded at 10,000 cells/well and the cells were starved in 100 μL starvation medium containing Axl/Fc for 24 hrs.
The cells were pre-treated with test compounds by adding 100 μL of 2× test compound to the starvation medium on the cells. The cells were incubated at 37° C. for 1 hr before stimulation.
The cells were stimulated by Axl-antibody cross-linking as follows: A 5× 1st/2nd Axl antibody mixture was made (37.5 μg/mL 1st/100 μg/mL 2nd) in starvation medium and nutated at 4° C. with thorough mixing for 1-2 hours for clustering. The resulting mix was warmed to 37° C. 50 μL of 5× Axl 1st/2nd of antibody cluster was added to the cells and the cells were incubated at 37° C. for 5 min.
After 5 minutes stimulation, the plate was flicked to remove medium and the plate was tapped onto paper towels. Formaldehyde (4.0% in PBS, 100 μL) was added to fix the cells and the cells were incubated at ambient temperature for 20 min without shaking.
The cells were washed with a plate washer buffer to remove the formaldehyde solution. The plate was flicked to remove excess wash buffer and tapped onto paper towels. Quenching buffer (100 μL) was added to each well and the cells were incubated at ambient temperature for 20 minutes without shaking.
The cells were washed with a plate washer buffer to remove the quenching buffer. Blocking buffer (100 μL) was added and the cells were incubated at ambient temperature for at least an hour with gentle shaking.
The cells were washed with a plate washer buffer and diluted primary antibody (50 μL) was added to each well (blocking buffer was added to the negative control wells instead). The plates were incubated overnight at 4° C. with gentle shaking.
The wash buffer was removed, diluted secondary antibody (100 μL) was added, and the cells were incubated at ambient temperature for 1 hour with gentle shaking. During the incubation, the chemiluminescent reagent was brought to ambient temperature.
The secondary antibody was removed by washing the cells 1× with wash buffer, 1× with PBS by plate washer. The PBS was removed from the plate and the chemiluminescent reagent (80 μL: 40 μL A and 40 μL B) was added to each well at ambient temperature.
The resulting chemiluminescence was read with a Luminomitor within 10 minutes to minimize changes in signal intensity. After reading the chemiluminescence, the cells were washed 1× with wash buffer and 1× with PBS by plate washer. The plate was tapped onto paper towels to remove excess liquid from wells and air-dried at ambient temperature for 5 minutes.
Crystal Violet working solution (60 μL) was added to each well and the cells were incubated at ambient temperature for 30 min. The crystal violet solution was removed, and the wells were rinsed with PBS, then washed 3× with PBS (200 μL) for 5 minutes each.
5% SDS solution (70 μL) was added to each well and the cells were incubated on a shaker for 30 min at ambient temperature. […]

IC50, < 5 µM:
NC(=O)C1C2C=CC(C2)C1Nc1nc(Nc2ccc(OCCN3CCCC3)cc2)nc2[nH]cnc12 (racemic) [Compound 234]
CCN(CC)C(=O)c1cccc(Nc2nc(NC3C4C=CC(C4)C3C(N)=O)c3cc[nH]c3n2)c1 (racemic) [Compound 222, Racemic-(2-exo,3-exo)-N4-(3-aminocarbonylbicyclo [2.2.1]hept-5-en-2-yl)-N2-(3-N,N-diethyl-aminocarbonyl-phenyl)-1H-pyrrolo[2,3-d]pyrimidine-2,4-diamine]
NC(=O)C1C2C=CC(C2)C1Nc1nc2c(c(Nc3ccc(OCCN4CCCC4)cc3)n1)CN(Cc1ccccc1)CC2 (stereo not shown) [Compound 186, 3-(6-benzyl-4-(4-(2-(pyrrolidin-1-yl)ethoxy)phenylamino)-5,6,7,8-tetrahydropyrido[4,3-d]pyrimidin-2-ylamino)bicyclo[2.2.1] hept-5-ene-2-carboxamide]
NC(=O)C1C2C=CC(C2)C1Nc1nc(Nc2ccc(OCCN3CCCC3)c(Cl)c2)nc2ccccc12 (racemic) [Compound 216, Racemic-(2-exo,3-exo)-N4-(3-aminocarbonylbicyclo [2.2.1]hept-5-en-2-yl)-N2-(3-Chloro-4-(2-(1-pyrrolidinyl)ethoxy)phenyl)-2,4-quinazoline-diamine]
CNC(=O)[C@H]1CC2CC(C2(C)C)[C@@]1(C)Nc1nc(Nc2ccc(N3CCN(C4CCCCC4)CC3)cc2)nc2ccsc12 (stereo in doubt) [Compound 198, (1S,2R,3S,SR)-2-(2-(4-(4-cyclohexylpiperazin-1-yl)phenylamino)thieno [3,2-d]pyrimidin-4-ylamino)-N,2,6,6-tetramethylbicyclo[3.1.1] heptane-3-carboxamide]
CNC(=O)[C@H]1C[C@H]2CC(C2(C)C)[C@@]1(C)Nc1nc(Nc2ccc(OCCN3CCCC3)cc2)nc2ccsc12 (stereo in doubt) [Compound 197, (1S,2R,3S,5R)-N,2,6,6-tetramethyl-2-(2-(4-(2-(pyrrolidin-1-yl)ethoxy)phenylamino)thieno[3,2-d]pyrimidin-4-ylamino)bicyclo[3.1.1] heptane-3-carboxamide]
NC(=O)C1C2C=CC(C2)C1Nc1nc(Nc2ccc3c(c2)OCCCO3)nc2ccsc12 (stereo not shown) [Compound 182, 3-(2-(3,4-dihydro-2H-benzo[b][1,4]dioxepin-7-ylamino)thieno[3,2-d]pyrimidin-4-ylamino)bicyclo[2.2.1] hept-5-ene-2-carboxamide]
CC1CCN(C2CCN(c3ccc(Nc4nc(N[C@@H]5C6C=CC(C6)[C@@H]5C(N)=O)c5sc(C(F)(F)F)cc5n4)cc3F)CC2)CC1 (stereo partly drawn) [Compound 209, (2S,3R)-3-(2-(3-fluoro-4-(4-methyl-1,4′-bipiperidin-1′-yl)phenylamino)-6-(trifluoromethyl)thieno [3,2-d]pyrimidin-4 ylamino)bicyclo[2.2.1] hept-5-ene-2-carboxamide]
NC(=O)C1C2C=CC(C2)C1Nc1nc(Nc2ccc(OCCN3CCCC3)cc2)nc2c1CCC2 (stereo not shown) [Compound 185, 3-(2-(4-(2-(pyrrolidin-1-yl)ethoxy)phenylamino)-6,7-dihydro-5H-cyclopenta[d]pyrimidin-4-ylamino)bicyclo[2.2.1] hept-5-ene-2-carboxamide]
Cc1cc(Nc2nc(NC3C4C=CC(C4)C3C(N)=O)c3ccccc3n2)ccc1OCCN1CCCC1 (racemic) [Compound 215, Racemic-(2-exo,3-exo)-N4-(3-aminocarbonylbicyclo [2.2.1]hept-5-en-2-yl)-N2-(3-methyl-4-(2-(1-pyrrolidinyl)ethoxy)phenyl)-2,4-quinazoline-diamine]

IC50, < 10 µM:
CONC(=O)Cc1cccc(Nc2nc(NC3C4C=CC(C4)C3C(N)=O)c3cc[nH]c3n2)c1 (racemic) [Compound 229, Racemic-(2-exo,3-exo)-N4-(3-aminocarbonylbicyclo [2.2.1]hept-5-en-2-yl)-N2-[3-(N-methoxy)-aminocarbonyl-methylphenyl]-1H-pyrrolo[2,3-d]pyrimidine-2,4-diamine]
CCOC(=O)C1C2C=CC(C2)C1Nc1nc(Nc2cccc(OC)c2)nc2[nH]ccc12 (racemic) [Compound 232, Racemic-(2-exo,3-exo)-N4-(3-ethoxycarbonylbicyclo [2.2.1]hept-5-en-2-yl)-N2-(3-methoxyphenyl)-1H-pyrrolo[2,3-d]pyrimidine-2,4-diamine]
NC(=O)[C@H]1C2C=CC(C2)[C@H]1Nc1nc(Nc2ccc(C(=O)N3CCN(C4CCCCC4)CC3)cc2)nc2cc(C(F)(F)F)sc12 (stereo partly drawn) [Compound 211, (2S,3R)-3-(2-(4-(4-cyclohexylpiperazine-1-carbonyl)phenylamino)-6-(trifluoromethyl)thieno [3,2-d]pyrimidin-4 ylamino)bicyclo[2.2.1] hept-5-ene-2-carboxamide]

IC50, > 10 µM:
CCOC(=O)N1CCN(c2ccc(Nc3nc(N[C@@H]4C5C=CC(C5)[C@@H]4C(N)=O)c4sccc4n3)cc2F)CC1 (stereo partly drawn) [Compound 208, ethyl 4-(4-(4-((2R,35)-3-carbamoylbicyclo[2.2. 1]hept-5-en-2-ylamino)thieno[3,2-d]pyrimidin-2-ylamino)-2-fluorophenyl)piperazine-1-carboxylate]
NC(=O)[C@H]1C2C=CC(C2)[C@H]1Nc1nc(Nc2ccc(OCCN3CCCC3)cc2)nc2cc(C(F)(F)F)sc12 (stereo partly drawn) [Compound 210, (2S,3R)-3-(2-(4-(2-(pyrrolidin-1-yl)ethoxy)phenylamino)-6-(trifluoromethyl)thieno [3,2-d]pyrimidin-4-ylamino)bicyclo[2.2.1] hept-5-ene-2-carboxamide]
NC(=O)[C@H]1C2C=CC(C2)[C@H]1Nc1nc(Nc2ccc(OCCN3CCCC3)cc2)nc2c1cnn2Cc1ccccc1 (stereo partly drawn) [Compound 189, (2S,3R)-3-(1-benzyl-6-(4-(2-(pyrrolidin-1-yl)ethoxy)phenylamino)-1H-pyrazolo[3,4-d]pyrimidin-4-ylamino)bicyclo[2.2.1] hept-5-ene-2-carboxamide]
